The results in this text go back to PMC7408066, “Attenuation of Inflammatory Symptoms by Icariside B2 in Carrageenan and LPS-Induced Inflammation Models via Regulation of MAPK/NF-κB Signaling Cascades” (Biomolecules, 2020).

This assay has as its target T1, COX-2 (Ovis aries, UniProt P79208).
T1 construct: gene PTGS2; ovine purified COX-2
T1 sequence (P79208 17-603): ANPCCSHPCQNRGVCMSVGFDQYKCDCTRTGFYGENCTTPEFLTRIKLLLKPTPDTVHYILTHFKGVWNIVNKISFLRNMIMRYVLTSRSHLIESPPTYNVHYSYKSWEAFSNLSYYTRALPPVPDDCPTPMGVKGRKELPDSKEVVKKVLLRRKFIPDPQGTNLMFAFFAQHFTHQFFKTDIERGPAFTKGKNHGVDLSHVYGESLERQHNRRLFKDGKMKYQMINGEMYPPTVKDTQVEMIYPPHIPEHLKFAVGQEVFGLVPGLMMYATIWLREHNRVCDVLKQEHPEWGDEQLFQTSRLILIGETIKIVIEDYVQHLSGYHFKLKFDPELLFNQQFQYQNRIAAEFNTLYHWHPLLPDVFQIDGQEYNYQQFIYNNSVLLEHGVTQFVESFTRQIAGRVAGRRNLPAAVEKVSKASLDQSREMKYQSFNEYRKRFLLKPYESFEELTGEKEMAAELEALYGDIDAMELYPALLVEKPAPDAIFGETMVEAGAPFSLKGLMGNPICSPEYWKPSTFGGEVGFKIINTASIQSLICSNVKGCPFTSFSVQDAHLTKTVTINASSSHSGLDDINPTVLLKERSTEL
The assay is described as follows: Cayman colorimetric COX (ovine) inhibitor screening assay, purified enzyme. In kind it is biochemical.

In the case of `CC(=O)/C=C/C12OC1(C)CC(OC1OC(CO)C(O)C(O)C1O)CC2(C)C` (stereo not shown) [ICSB, icariside B2], inhibition was half-maximal at 7.8 ± 0.26 µM (IC50).
